Values quoted from earlier work, collected in EP4484428A1, “CUCURBITURIL DERIVATIVES FOR RADIOLABELING, PROCESSES OF PRODUCTION AND USES THEREOF” (Université de Bourgogne, priority 2023, dated 2025).

Tested on: (strept)avidin
Conditions: biotin-(strept)avidin pair, association constant

O=C(O)CCCC[C@@H]1SC[C@@H]2NC(=O)N[C@@H]21 [biotin]
affinity (K): 10^15 M^-1
